Experimental data from patent US20240207276A1, “COMBINATION COMPRISING A NEUROTENSIN RECEPTOR BINDING COMPOUND AND FOLFIRINOX” (Fusion Pharmaceuticals Inc., priority 2021, published 2024).

Test system: AsPC1 tumors
Test: Efficacy study in mice bearing subcutaneous AsPC1 tumors (tumor volume)
Assay type: in vivo, SWISS Nude mice
Conditions: single treatments; FOLFIRINOX (Group 2) or ^177Lu-IPN01087 20 MBq/mouse IV weekly x3 (Group 3); FIG. 2
Description: Example 1: Efficacy Study on Animals Induced with AsPC1 Cells
The AsPC1 cell line was isolated from a metastatic site (ascites) from a patient (Chen WH. et al., In Vitro. 1982 January; 18(1):24-34).
Tumor cells were grown as monolayer at 37° C. in a humidified atmosphere (5% C02, 95% air). The culture medium is RPMI 1640 containing glutamax supplemented with 10% heat inactivated fetal bovine serum, sodium pyruvate and hepes. For experimental use, tumor cells were detached from the culture flask using accutase and neutralized by addition of complete culture medium. The cells were counted and their viability was assessed by 0.25% trypan blue exclusion assay. Two frozen pellets of AsPC-1 tumor cells were prepared: one frozen cell pellet prepared during the in-vitro cell culture, and one frozen cell pellet prepared using the cell suspension used for tumor induction in mice.
One hundred fifty (150) healthy female SWISS Nude mice (Crl:NU(Ico)-Foxn1 nu), 7 weeks old at reception, were obtained from Charles River.
Tumors were induced by subcutaneous injection of ten million (107) AsPC-1 cells in 200 μL of RPMI 1640 medium containing matrigel (50:50, v:v, ref: 356237, BD Biosciences, France) into the right flank (in the axis of the heart) of 150 female animals. […]

## ^177Lu-zalsenertant tetraxetan [^177Lu-IPN01087]
  AsPC-1 tumor growth, antitumor effect compared to the vehicles: produced an antitumor effect
